The text below walks through data of US7109214B2, “Substituted cyclopentene compounds” (Grunenthal GmbH, priority 2004, dated 2006).

Counter-ions that a name gives are not always drawn. Like-named read-outs stand apart in the source and are kept apart here.

By melting point is commonly meant the temperature of the solid-liquid transition. By inhibition is commonly meant the share of the control response that was lost under treatment. Usually IC50 stands for the concentration that gives 50% inhibition.

Data set [1] deals with T1, human calcitonin receptor-related receptor (CRLR) and human RAMP1 (Homo sapiens, UniProt O60894+Q16602).
T1 construct: purchased Euroscreen, Brussels, Belgium; host or cells: CHO-K1 cells (transfected), membranes
Put plainly: GTPγS assay: CGRP-induced [35S]GTPγS incorporation into CHO-K1 membranes. It counts as biochemical. As for the experimental part: The antagonistic action of the substituted cyclopentene compounds according to the invention was determined using this assay.
To this end, membranes from CHO-K1 cells (Euroscreen, Brussels, Belgium), which are transfected with the human calcitonin receptor-related receptor (CRLR, Genbank: U17473) and human receptor-associated modifying protein type 1 (RAMP1, Genbank AJ001014), are first of all rapidly thawed, diluted in 20 mM HEPES, 10 mM NaCl, 10 mM MgCl2, 1 mM EDTA pH 7.4 and resuspended by homogenisation. […] After 30 minutes' incubation at room temperature, 50 μl of 2 nM [35S]GTPγS (Amersham) are added and incubated for a further 30 minutes at room temperature and the assay-plate is centrifuged for 10 minutes at 3200 revolutions per minute. Bound activity was determined with a Wallac 1450 Microbeta Scintillation Counter (Wallac, Torku, Finland).
The inhibition of CGRP-induced incorporation of [^35S]GTPγS into membranes was determined in accordance with the above-described method.
(In general: GTPγS is a poorly hydrolysed GTP analogue; its binding reports G protein activation.)

The target of data set [2] is T2, recombinant human CGRP1 receptor (CRLR and RAMP1) (Homo sapiens, UniProt O60894+Q16602).
T2 construct: purchased Euroscreen, Belgium ES420-M9; host or cells: CHO-K1 cell membranes
Put plainly: Inhibition of binding of 3-[125I]-iodohistidyl10-α-CGRP to the human CGRP1 receptor (SPA). As to conditions: read-out: Inhibition in % of binding of 3-[125I]-iodohistidyl10 CGRP; at a concentration of 10 μM of the particular compound. As for the experimental part:
(A) Investigation of the Inhibition of Binding of [^125I]-α-CGRP to the Human CGRP1 Receptor
Various CGRP receptor subtypes are known which in each case consist of a complex of CRLR (Calcitonin Receptor-Like Receptor), RAMP (Receptor-Associated Membrane Protein) and RCP (Receptor Component Protein).
Investigation of the inhibition of the binding of 3-[^125I]-iodohistidyl^10-α-CGRP is carried out on a human CGRP1 receptor, which is composed of the recombinant human constituents (Calcitonin Receptor-Like Receptor) CRLR and (Receptor-Associated Membrane Protein) RAMP1 (item no. ES420-M9, Euroscreen, Belgium).
The radioligand used is 3-[^125I]-iodohistidyl^10 Calcitonin Gene-Related Peptide (Amersham pharmacia biotech, code IM 184, 2000 Ci/mmol).
The binding studies are performed as SPA (scintillation proximity assay) batches with WGA beads (wheat germ agglutinin, Amersham pharmacia biotech, code: RPNQ 0001). The incubation buffer used is 50 mm tris pH 7.4 with 120 mM NaCl, 5 mM KCl and 5 mM MgCl2. 0.25 μg of protein of membrane suspension of CHO-K1 cells, 250 μg of beads and 10 μg of albumin (BSA) and the above-stated radioligand in a concentration of […] together with the compound according to the invention to be investigated in a concentration of 10 μM are introduced into each well of a microtitre plate.
After an incubation period of 90 minutes, radioactivity is measured in a Trilux detector (Wallac, Finland).
The inhibition of binding of 3-[^125I]-iodohistidyl^10 Calcitonin Gene-Related Peptide to the recombinant human CGRP1 receptor was determined in accordance with the method described above.

Data set [3] concerns the target T3, CGRP1 receptors (Cavia porcellus, UniProt H0UV86+Q8R4C6).
T3 sequence (H0UV86 23-464): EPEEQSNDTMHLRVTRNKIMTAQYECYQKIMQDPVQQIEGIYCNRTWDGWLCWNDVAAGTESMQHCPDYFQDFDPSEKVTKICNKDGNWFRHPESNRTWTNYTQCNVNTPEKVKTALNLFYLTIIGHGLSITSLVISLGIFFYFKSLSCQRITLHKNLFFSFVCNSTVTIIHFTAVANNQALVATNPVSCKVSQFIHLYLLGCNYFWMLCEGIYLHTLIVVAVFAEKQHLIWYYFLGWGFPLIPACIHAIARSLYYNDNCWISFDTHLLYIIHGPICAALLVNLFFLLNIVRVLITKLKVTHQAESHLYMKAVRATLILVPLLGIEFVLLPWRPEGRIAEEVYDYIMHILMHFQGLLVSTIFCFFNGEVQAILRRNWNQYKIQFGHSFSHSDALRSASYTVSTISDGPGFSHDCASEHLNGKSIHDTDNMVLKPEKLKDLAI
T3 sequence (Q8R4C6 27-148): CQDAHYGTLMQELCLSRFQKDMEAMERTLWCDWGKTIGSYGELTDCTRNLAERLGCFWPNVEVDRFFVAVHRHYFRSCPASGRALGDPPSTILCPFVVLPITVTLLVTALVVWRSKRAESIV
Put plainly: CGRP receptor affinity on isolated, spontaneously beating guinea pig atrium. As for the experimental part: J. Physiol. Pharmacol. 75: 671–6,1997. The corresponding literature description is hereby introduced as a reference and is deemed to be part of the disclosure.
The exposure time for each concentration level is 2 minutes.
The validation and investigation of the substituted cyclopentene compounds according to the invention for their antagonistic action proceeded in accordance with the above-described method.

Data set [4] addresses T4, endogenous CGRP receptors in SK-N-MC cells (Homo sapiens, UniProt O60894+Q16602).
T4 construct: host or cells: SK-N-MC human neuroblastoma cells
Put plainly: Action on the formation of cAMP in the human neuroblastoma cell line SK-N-MC. In kind it is cell-based. As to conditions: at 1 nM CGRP, compounds used in 10 μM concentrations. The source says: The corresponding description is hereby introduced as a reference and is deemed to be part of the disclosure.

The mark [5] stands for this setting: read-out: IC50 value for CGRP-antagonistic action, isolated guinea pig atria stimulated by h-α-CGRP.

T4 sequence (Q16602 23-461): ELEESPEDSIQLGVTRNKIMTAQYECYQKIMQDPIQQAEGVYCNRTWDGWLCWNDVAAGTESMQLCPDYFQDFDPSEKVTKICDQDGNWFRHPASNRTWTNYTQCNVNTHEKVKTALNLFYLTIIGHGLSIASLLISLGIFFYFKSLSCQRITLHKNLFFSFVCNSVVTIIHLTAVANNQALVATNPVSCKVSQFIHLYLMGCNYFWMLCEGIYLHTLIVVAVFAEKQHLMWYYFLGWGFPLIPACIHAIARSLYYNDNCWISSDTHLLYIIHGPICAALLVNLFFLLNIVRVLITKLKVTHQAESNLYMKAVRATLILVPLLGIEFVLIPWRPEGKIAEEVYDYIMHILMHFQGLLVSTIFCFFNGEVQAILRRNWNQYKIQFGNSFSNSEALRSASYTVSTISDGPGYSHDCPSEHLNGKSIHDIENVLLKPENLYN
T4 sequence (O60894 27-148 partner): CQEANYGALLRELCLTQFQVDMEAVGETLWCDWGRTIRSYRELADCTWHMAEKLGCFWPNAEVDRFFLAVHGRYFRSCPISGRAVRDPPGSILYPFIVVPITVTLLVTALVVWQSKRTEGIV
T2 sequence (Q16602 23-461): as the sequence (Q16602 23-461) above
T2 sequence (O60894 27-148 partner): as the sequence (O60894 27-148 partner) above
T1 sequence (Q16602 23-461): as the sequence (Q16602 23-461) above
T1 sequence (O60894 27-148 partner): as the sequence (O60894 27-148 partner) above

For `CC(C)c1cccc(C2=C(c3ccc(S(C)(=O)=O)cc3)CC(CN(C)C)C2=O)c1.Cl` (stereo not drawn), the melting point is 131 to 133 °C.

The compound `Cc1ccc(C2=C(c3ccc(S(C)(=O)=O)cc3)CC(CN(C)C)C2=O)cc1C.Cl` (stereo not drawn) displayed a melting point of 139 to 142 °C.

Take `Cc1cc(C2=C(c3ccc(S(C)(=O)=O)cc3)CC(CN(C)C)C2=O)ccc1F.Cl` (stereo not drawn): the melting point is 95 to 98 °C (dec.).

Take `CN(C)CC1CC(c2ccc(S(C)(=O)=O)cc2)=C(c2ccc(S(C)(=O)=O)cc2)C1=O.Cl` (stereo not drawn): the melting point was in the range of 157 to 159 °C.

As to `CN(C)CC1CC(c2ccc(S(C)(=O)=O)cc2)=C(c2ccc(O)cc2)C1=O.Cl` (stereo not drawn), the melting point is 98 to 100 °C.

For `CN(C)CC1CC(c2ccc(S(C)(=O)=O)cc2)=C(c2ccc3ccccc3c2)C1=O.Cl` (stereo not drawn), the melting point fell in the range of 163 to 165 °C.

Regarding `CN(C)CC1CC(c2ccc(S(C)(=O)=O)cc2)=C(c2cc(Cl)cc(Cl)c2)C1=O.Cl` (stereo not drawn), the melting point lay within 160 to 163 °C.

Compound `CN(C)CC1CC(c2ccc(S(C)(=O)=O)cc2)=C(c2cccc(C(F)(F)F)c2)C1=O.Cl` (stereo not drawn) returned a melting point of 152 to 154 °C.

For the compound `CN(C)CC1CC(c2ccc(S(C)(=O)=O)cc2)=C(c2cc(F)cc(F)c2)C1=O.Cl` (stereo not drawn) [Example 1, 2-(3,5-Difluorophenyl)-5-dimethylaminomethyl-3-(4-methanesulfonylphenyl)-cyclopent-2-enone, hydrochloride], the inhibition at 12.5 µM in data set [1] was found to be 65.1%. Further, the inhibition at 10 µM in data set [2] was found to be 40%. In data set [3] (setting [5]), the IC50 came out at 13 µM. Besides, the “Inhibition of cAMP formation” value in data set [4] came out at 71%.

The compound `CN(C)CC1CC(c2ccc(S(C)(=O)=O)cc2)=C(c2cccc(Cl)c2)C1=O.Cl` (stereo not drawn) returned a melting point of 156 to 158 °C.

The compound `COc1cccc(C2=C(c3ccc(S(C)(=O)=O)cc3)CC(CN(C)C)C2=O)c1.Cl` (stereo not drawn) [Example 13, 5-Dimethylaminomethyl-3-(4-methanesulfonylphenyl)-2-(3-methoxyphenyl)-cyclopent-2-enone, hydrochloride] gave a melting point of 154 to 157 °C. Besides, the inhibition at 12.5 µM in data set [1] was 63.9%. Besides, the inhibition at 10 µM in data set [2] is 60%. Moreover, the IC50 in data set [3] (setting [5]) stood at 32 µM. Also, the “Inhibition of cAMP formation” value in data set [4] was 88%.

In turn, `CN(C)CC1CC(c2ccc(S(C)(=O)=O)cc2)=C(c2ccc(C(C)(C)C)cc2)C1=O.Cl` (stereo not drawn) gave a melting point of 182 to 184 °C.

`Cc1cccc(C2=C(c3ccc(S(C)(=O)=O)cc3)CC(CN(C)C)C2=O)c1.Cl` (stereo not drawn) came in with a melting point of 148 to 150 °C.

Compound `Cc1ccc(C2=C(c3ccc(S(C)(=O)=O)cc3)CC(CN(C)C)C2=O)cc1.Cl` (stereo not drawn) gave a melting point of 127 to 129 °C.

`CCOc1cccc(C2=C(c3ccc(S(C)(=O)=O)cc3)CC(CN(C)C)C2=O)c1.Cl` (stereo not drawn) came in with a melting point of 149 to 151 °C.

For the compound `CN(C)CC1CC(c2ccc(S(C)(=O)=O)cc2)=C(c2cccc(O)c2)C1=O.Cl` (stereo not drawn) [Example 3, 5-Dimethylaminomethyl-2-(3-hydroxyphenyl)-3-(4-methanesulfonylphenyl)-cyclopent-2-enone, hydrochloride], the melting point lay within 162 to 164 °C. Also, the inhibition at 12.5 µM in data set [1] was 65.1%. Besides, the inhibition at 10 µM in data set [2] was found to be 66%. Besides, in data set [3] (setting [5]), the IC50 worked out at 77 µM. Also, the “Inhibition of cAMP formation” value in data set [4] was found to be 86%.

The compound `CN(C)CC1CC(c2ccc(S(C)(=O)=O)cc2)=C(c2ccc3c(c2)OCO3)C1=O.Cl` (stereo not drawn) had a melting point of 149 to 152 °C.

In the case of “h-α-CGRP(8-37): human α-CGRP(8-37), CGRP1-antagonistic fragment used to validate the guinea pig atrium model [reference compound]”, the “Reduction in the increase in the frequency of beating of the atria stimulated by h-α-CGRP (in words)” value in data set [3] (concentrations of 30, 100 and 300 nM) was “concentration-dependent reduction”. For the same compound, the IC50 in data set [3] (validation experiment, isolated guinea pig atria, read-out: IC50 (semimaximal action), reduction of h-α-CGRP-stimulated increase in frequency of beating) worked out at 0.019 µM.

Compound `CN(C)CC1CC(c2ccc(S(C)(=O)=O)cc2)=C(c2cccc(F)c2)C1=O.Cl` (stereo not drawn) [Example 5, 5-Dimethylaminomethyl-2-(3-fluorophenyl)-3-(4-methanesulfonylphenyl)-cyclopent-2-enone, hydrochloride] had a melting point of 154 to 158 °C. Besides, in data set [1], the inhibition at 12.5 µM came out at 62.4%. Moreover, the inhibition at 10 µM in data set [2] came to 58%. Further, in data set [3] (setting [5]), the IC50 came to 25 µM. Besides, the “Inhibition of cAMP formation” value in data set [4] came to 82%.

Turning to `CN(C)CC1CC(c2ccc(S(C)(=O)=O)cc2)=C(c2ccc(C(C)(C)C)cc2)C1O` (stereo not drawn) [Example 21, 2-(4-tert-Butylphenyl)-5-dimethylaminomethyl-3-(4-methanesulfonylphenyl)-cyclopent-2-enol, hydrochloride], the inhibition at 10 µM in data set [2] was found to be 26%.
